Data from patent publication US20220386606A1, “SPECIFICALLY SUBSTITUTED 3-PHENYL-5-SPIROCYCLOPENTYL-3-PYRROLIN-2-ONES AND THEIR USE AS HERBICIDES” (Bayer Aktiengesellschaft, priority 2019, published 2022).

Legend:
[1] = tested on: DIGSA; test: Post-emergence herbicidal action against DIGSA; assay type: in vivo, Digitaria sanguinalis; conditions: 80 g/ha, visual assessment about 3 weeks after treatment vs untreated controls
How it was run: (§1)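 Sow in sandy loam and grow in the greenhouse for 2 to 3 weeks to the one-leaf stage. Spray the compound as an aqueous suspension or emulsion with 0.2% wetting agent, 600 to 800 l/ha water rate. Hold about 3 weeks, then score damage visually versus controls.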

[2] = tested on: VERPE; test: Pre-emergence herbicidal action against VERPE; assay type: in vivo, Veronica persica; conditions: 320 g/ha
How it was run: (§2)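 Pre-emergence soil-surface application: WP/EC in water, 600 to 800 L/ha, + 0.2% wetting agent, onto soil-covered seeds in sandy loam. Greenhouse, 3 wk. Visual % activity vs untreated (100% = dead).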

[3] = tested on: SETVI; test: Post-emergence herbicidal action against SETVI; assay type: in vivo, Setaria viridis; conditions: 80 g/ha, visual assessment about 3 weeks after treatment vs untreated controls
How it was run: as §1

[4] = tested on: ALOMY; test: Post-emergence herbicidal action against ALOMY; assay type: in vivo, Alopecurus myosuroides; conditions: 80 g/ha, visual assessment after about 3 weeks
How it was run: as §1

[5] = tested on: MATIN; test: Pre-emergence herbicidal action against MATIN; assay type: in vivo; conditions: 320 g/ha
How it was run: as §2

[6] = tested on: DIGSA; test: Pre-emergence herbicidal action against DIGSA; assay type: in vivo, Digitaria sanguinalis; conditions: 320 g/ha, scored visually after 3 weeks vs untreated controls
How it was run: as §2

[7] = tested on: VIOTR; test: Pre-emergence herbicidal action against VIOTR; assay type: in vivo, Viola tricolor; conditions: 320 g/ha
How it was run: as §2

[8] = tested on: ECHCG; test: Post-emergence herbicidal action against ECHCG; assay type: in vivo, Echinochloa crus-galli; conditions: 80 g/ha, visual assessment about 3 weeks after treatment vs untreated controls
How it was run: as §1

[9] = tested on: LOLRI; test: Pre-emergence herbicidal action against LOLRI (Table 8, titled post-emergence at 320 g/ha); assay type: in vivo, Lolium rigidum; conditions: table stands in the pre-emergence section
How it was run: as §2

[10] = tested on: ECHCG; test: Pre-emergence herbicidal action against ECHCG; assay type: in vivo, Echinochloa crus-galli; conditions: 320 g/ha, scored visually after 3 weeks vs untreated controls
How it was run: as §2

[11] = tested on: SETVI; test: Pre-emergence herbicidal action against SETVI; assay type: in vivo, Setaria viridis; conditions: 320 g/ha, scored visually after 3 weeks vs untreated controls
How it was run: as §2

[12] = tested on: PHBPU; test: Post-emergence herbicidal action against PHBPU; assay type: in vivo; conditions: assessed visually after about 3 weeks, 100% = plants have died, 0% = like control plants
Protocol: (§3) Seeds of monocotyledonous and dicotyledonous weed and crop plants are laid out in sandy loam soil in wood-fiber pots, covered with soil and cultivated in a greenhouse under good growth conditions. 2 to 3 weeks after sowing, the test plants are treated at the one-leaf stage. The compounds of the invention, formulated in the form of wettable powders (WP) or as emulsion concentrates (EC), are then sprayed onto the green parts of the plants as aqueous suspension or emulsion at a water application rate equating to 600 to 800 l/ha with addition of 0.2% wetting agent. After the test plants have been left to stand in the greenhouse under optimal growth conditions for about 3 weeks, the action of the preparations is assessed visually in comparison to untreated controls (herbicidal action in percent (%): 100% activity=the plants have died, 0% activity=like control plants).

[13] = tested on: LOLRI; test: Post-emergence herbicidal action against LOLRI; assay type: in vivo, Lolium rigidum; conditions: 80 g/ha, visual assessment about 3 weeks after treatment vs untreated controls
How it was run: as §1

[14] = tested on: AVEFA; test: Pre-emergence herbicidal action against AVEFA; assay type: in vivo, Avena fatua; conditions: 320 g/ha, scored visually after 3 weeks vs untreated controls
How it was run: as §2

[15] = tested on: AMARE; test: Pre-emergence herbicidal action against AMARE; assay type: in vivo, Amaranthus retroflexus; conditions: 320 g/ha
How it was run: as §2

[16] = tested on: AVEFA; test: Post-emergence herbicidal action against AVEFA; assay type: in vivo, Avena fatua; conditions: 80 g/ha, visual assessment after about 3 weeks
How it was run: as §1

[17] = tested on: POLCO; test: Pre-emergence herbicidal action against POLCO; assay type: in vivo, Polygonum convolvulus; conditions: 320 g/ha
How it was run: as §2

[18] = tested on: ALOMY; test: Pre-emergence herbicidal action against ALOMY; assay type: in vivo, Alopecurus myosuroides; conditions: 320 g/ha, scored visually after 3 weeks vs untreated controls
How it was run: as §2

[19] = tested on: ABUTH; test: Post-emergence herbicidal action against ABUTH; assay type: in vivo, Abutylon threophrasti; conditions: 80 g/ha, visual assessment about 3 weeks after treatment vs untreated controls
How it was run: as §1

[20] = tested on: VERPE; test: Post-emergence herbicidal action against VERPE; assay type: in vivo, Veronica persica; conditions: 80 g/ha, visual assessment about 3 weeks after treatment vs untreated controls
Protocol: as §3

[21] = tested on: VIOTR; test: Post-emergence herbicidal action against VIOTR; assay type: in vivo, Viola tricolor; conditions: 80 g/ha, visual assessment about 3 weeks after treatment vs untreated controls
Protocol: as §3

[22] = tested on: POLCO; test: Post-emergence herbicidal action against POLCO; assay type: in vivo, Polygonum convolvulus; conditions: 80 g/ha, visual assessment about 3 weeks after treatment vs untreated controls
Protocol: as §3

[23] = tested on: AMARE; test: Post-emergence herbicidal action against AMARE; assay type: in vivo, Amaranthus retroflexus; conditions: 80 g/ha, visual assessment about 3 weeks after treatment vs untreated controls
Protocol: as §3

[24] = tested on: ABUTH; test: Pre-emergence herbicidal action against ABUTH; assay type: in vivo, Abutylon threophrasti; conditions: 320 g/ha
How it was run: as §2

Row | SMILES | Post-emergence action against DIGSA in % [1] | Pre-emergence action against VERPE in % [2] | Post-emergence action against SETVI in % [3] | Post-emergence action against ALOMY in % [4] | Pre-emergence action against MATIN in % [5] | Pre-emergence action against DIGSA in % [6] | Pre-emergence action against VIOTR in % [7] | Post-emergence action against ECHCG in % [8] | Pre-emergence herbicidal action against LOLRI in % [9] | Pre-emergence action against ECHCG in % [10] | Pre-emergence action against SETVI in % [11] | Post-emergence action at 80 g/ha against PHBPU in % [12] | Post-emergence action against LOLRI in % [13] | Pre-emergence action against AVEFA in % [14] | Pre-emergence action against AMARE in % [15] | Post-emergence action against AVEFA in % [16] | Pre-emergence action against POLCO in % [17] | Pre-emergence action against ALOMY in % [18] | Post-emergence action against ABUTH in % [19] | Post-emergence action against VERPE in % [20] | also measured
1 | CC#Cc1cc(C)c(C2=C(OC(=O)OCC)C3(CCC(COCCC)C3)NC2=O)c(OC)c1 (stereo not drawn) [Example P-81] | 90% | 90% | 100% | 100% | 80% | 100% | 100% | 100% | 100% | 100% | 100% | 80% | 100% | 100% | 100% | 80% | 100% | 100% |  |  | 
2 | CC#Cc1cc(C)c(C2=C(O)C3(CCC(COCC)C3)NC2=O)c(OC)c1 (stereo not drawn) [Example I-32] | 100% |  |  | 100% |  | 100% | 100% | 100% | 100% | 100% | 100% |  | 100% | 90% |  | 100% |  | 100% | 80% | 80% | Post-emergence action against VIOTR in % [21]: 80%
3 | CC#Cc1cc(Br)c(C2=C(O)C3(CCC(COC)C3)NC2=O)c(OC)c1 (stereo not drawn) [Example I-10] | 100% | 100% | 100% | 100% |  | 100% | 100% | 100% | 100% | 100% | 100% |  | 100% | 100% |  |  | 80% | 100% |  |  | Post-emergence action against POLCO in % [22]: 80%
4 | CC#Cc1cc(C)c(C2=C(O)C3(CCC(COCC)C3)NC2=O)c(Cl)c1 (stereo not drawn) [Example I-02] | 90% | 90% | 100% | 100% | 90% | 100% | 100% | 100% | 100% | 100% | 100% |  | 100% | 100% | 100% | 90% | 100% | 100% | 80% | 90% | Post-emergence action against AMARE in % [23]: 80%; Pre-emergence action against ABUTH in % [24]: 100%
5 | CC#Cc1cc(F)c(C2=C(O)C3(CCC(COC)C3)NC2=O)c(OC)c1 (stereo not drawn) [Example I-41] | 100% |  | 100% | 100% |  | 100% |  | 100% | 100% |  | 100% | 80% | 90% | 80% |  | 90% |  |  |  |  | 
6 | CC#Cc1cc(C)c(C2=C(O)C3(CCC(COCCC)C3)NC2=O)c(OC)c1 (stereo not drawn) [Example I-58] | 90% |  | 100% | 100% | 100% | 100% | 90% | 100% | 100% | 100% | 100% | 80% | 100% | 80% | 100% |  |  | 100% |  |  | Post-emergence action against VIOTR in % [21]: 80%
7 | CC#Cc1cc(C)c(C2=C(O)C3(CCC(COCCC)C3)NC2=O)c(Cl)c1 (stereo not drawn) [Example I-68] | 100% |  | 100% | 100% | 100% | 100% | 100% | 100% | 100% | 100% | 100% | 80% | 100% | 100% | 100% |  |  | 100% |  |  | Pre-emergence action against ABUTH in % [24]: 90%; Post-emergence action against VIOTR in % [21]: 80%
8 | CC#Cc1cc(C)c(C2=C(OC(=O)OCC)C3(CCC(COC)C3)NC2=O)c(F)c1 (stereo not drawn) [Example P-52] | 100% |  |  | 100% |  | 100% | 90% | 100% | 100% | 100% | 100% |  | 100% | 90% | 80% | 90% | 80% | 100% | 80% | 80% | Post-emergence action against AMARE in % [23]: 80%
9 | CC#Cc1cc(C)c(C2=C(OC(=O)OCC)C3(CCC(COC)C3)NC2=O)c(F)c1 (stereo not drawn) [Example P-51] | 100% |  |  | 100% |  | 100% | 100% | 100% | 100% | 100% | 100% |  | 100% | 80% | 90% | 100% | 90% | 100% | 80% |  | Post-emergence action against POLCO in % [22]: 80%; Pre-emergence action against ABUTH in % [24]: 80%
